Data as given in patent US20150366962A1 (priority 2014, published 2015).

Experiments:
[1] = tested on: recombinant PR8 HA; test: T cell response to head and stalk segments of PR8 HA (IFNγ ELISpot or ELISA); format: in vivo, Balb/c mice; settings: two immunizations two weeks apart, 6 weeks after the first
[2] = tested on: human umbilical vein cells (HUVEC); test: Chemokine induction in HUVEC; format: cell-based
Description: (§1) TLR7 expression in humans is limited to plasmacytoid DC and B cells, and different from the expression in mice. Conversely, TLR4 is abundantly expressed in different cell types in humans and mice. Thus, experiments were performed to determine whether 1Z105 and 1V270 could stimulate human umbilical vein cells (HUVEC) and myeloid dendritic cells.

[3] = tested on: rCal/09 HA; test: Cross-reactive serum IgG to Cal/09 HA after rPR/8 HA immunization; format: in vivo, BALB/c mice; settings: for heteroreactive serum IgG titers versus unadjuvanted protein alone: 5 μg rPR/8 HA, rCal/09 HA substrate, 3 weeks
[4] = tested on: rHA derived from A/California/04/2009 (pH1N1); test: rHA (Cal/09) immunization: serum IgG ELISA; format: in vivo, BALB/c mice; settings: 5 μg Cal/09 rHA, 3 weeks after immunization
[5] = tested on: A/Brisbane/59/2007 (H1N1), A/Uruguay/716/2007 (H3N2), B/Brisbane/60/2008; test: Fluzone immunization: serum IgG to the vaccine's viral components; format: in vivo, BALB/c mice; settings: 50 ng/HA 2009-2010 Fluzone, 3 weeks
[6] = tested on: rPR/8 HA; test: rPR/8 HA single immunization: serum antibody ELISA; format: in vivo, BALB/c mice; settings: for seroconversion to rPR/8 HA (total IgG, IgG1, IgG2a): 5 μg rPR/8 HA i.m. day 0, sera days 7, 14, 21; for total serum IgG reactive to antigen, long term / IgG2a/IgG1 ratio (Th1-Th2 immune balance): 5 μg rPR/8 HA; for total serum IgG reactive to antigen, long term: bled every 3 weeks up to 18 weeks; for IgG2a/IgG1 ratio (Th1-Th2 immune balance): single immunization
[7] = tested on: PR/8 virus / PR/8 HA; test: Long-term memory response after rPR/8 HA: HAI titers, B cell and IFN-γ ELISpot; format: in vivo, BALB/c mice
Description: (A) BALB/c mice were i.m. immunized with rPR/8 HA (5 μg/animal) on day 0 with the indicated adjuvant or vehicle, and sera were collected every 3 weeks (red drops). (B) Levels of antigen-specific total IgG were measured by ELISA. (C) The serum HAI titer to PR/8 virus was assayed at 6 weeks after immunization, with a detection limit of 1:40 serum dilution; nd, not detectable. (D and E) Eighteen weeks after immunization, mice (n=5/group) were administered 10 mLD50 of PR/8 virus and monitored for morbidity, as measured by body weight loss (D), and mortality (E) induced by the viral challenge. […]
AddaVax was used at a 1:1 ratio with antigen in PBS. […] IFN-γ spot-forming cells were detected with the IFN-γ ELISpot ALP kit (3321-2A; Mabtech, Cincinnati, Ohio). Antigen specific B cells from splenocytes were quantified 5 days after reexposure to antigen (5 μg of rPR/8HAin PBS only administered i.m.) by plating them on ELISpot plates coated with rPR/8 protein (Strep tag purified) for 20 h, and detection of secreted antibody was performed with an anti-mouse IgG secondary antibody conjugated to horseradish peroxidase (HRP).
Anti-OVA antibodies of the IgG subclasses IgG1 and IgG2c were measured by ELISA. Each ELISA plate contained a titration of a previously quantitated serum to generate a standard curve. […] Total IgG, IgG1, and IgG2a were detected.

[8] = tested on: myeloid dendritic cells; test: Chemokine induction in human myeloid dendritic cells; format: cell-based; settings: myeloid DC
Description: as §1

[9] = tested on: OT-II splenocytes; test: Intracellular IFNγ in CD4 T cells of OT-II splenocytes; format: cell-based, mice; settings: for intracellular IFNγ expressing CD4 T cells: alone, OVA323-339, 3 days
Description: To evaluate whether 1Z105 can enhance the proinflammatory cytokine induction by 1V270, BMDC (C57BL/6) were incubated with 1V270 (0.025, or 0.1 μM) in the presence or absence of 1Z105 (5 μM). […] Antigen presenting function was evaluated using splenocytes prepared from OVA MHC class II-restricted alpha beta T cell receptor (TCR) transgenic mice OT-II. Splenocytes were cultured with OVA peptide (OVA323-339) for 3 days with 1Z105, or 1V270 alone or in combination. The frequency of intracellular (IC) IFNγ expressing CD4 T cells was determined by flow cytometric assay. Treatment with 1V270 alone increased intracellular IFNγ (3.7 and 6.8% by 25 and 100 nM, respectively).

[10] = tested on: rHA derived from A/Vietnam/1203/2004 (VN/04); set-up: species or system BALB/c mice; settings: mouse, in vivo
[11] = tested on: Purified CD4+ or CD8+ T cells; test: Purified CD4+ or CD8+ T cell proliferation; format: cell-based; settings: in the presence of CD3 ligation
Description: Capability for induction of antigen specific CD8 T cells is one of the ideal features for adjuvants for cancer or herpes simplex virus infection. Thus, 1V270 and 1Z105 were examined to determine whether the agonists can directly induce T cell proliferation. Purified CD4+ or CD8+ T cells were incubated with 1Z105, 1V270 alone or in combination.

Structure (SMILES) | T cell response against the head segment (pool 1-2) of HA [1] | stalk-specific (pool 3-4) T cell responses [1] | induction of chemokines MCP-1 and IL-8 [2] | heteroreactive serum IgG titers versus unadjuvanted protein alone [3] | IgG seroresponse [4] | seroresponse to the three viral components of Fluzone (ELISA) [5] | seroconversion to rPR/8 HA (total IgG, IgG1, IgG2a) [6] | total serum IgG reactive to antigen, long term [6] | IgG2a/IgG1 ratio (Th1-Th2 immune balance) [6] | antigen-specific IFN-γ-producing T cells (ELISpot) ([7]; splenocytes 6 months after immunization, PR/8 HA peptide pool overnight) | induction of chemokines MCP-1 and IL-8 [8] | intracellular IFNγ expressing CD4 T cells ([9]; 25 nM) [%] | intracellular IFNγ expressing CD4 T cells ([9]; 100 nM) [%] | IgG seroresponse [10] | purified CD4+ or CD8+ T cell proliferation [11] | subtypes of cross-reactive antibodies (IgG2a/IgG1) ([3]; antibodies cross-reactive to Cal/09 HA) | difference in serum IgG endpoint titers among rHA doses (antigen sparing) ([6]; 5, 1 or 0.2 μg rPR/8 HA, 3 weeks after immunization) | fold increase in HAI titer induced by the boost ([7]; 5 days after reexposure versus preboost) | frequency of IFNγ-producing cells ([9]; 1Z105 in combination with 1V270)
CCCCCCCCC=CCCCCCCCC(=O)OCC(COP(=O)(O)OCCNC(=O)c1ccc(Cn2c(=O)[nH]c3c(N)nc(OCCOC)nc32)cc1)OC(=O)CCCCCCCC=CCCCCCCCC (stereo not drawn) [Compound 1V270] | highly induced T cell response | also induced stalk-specific (pool 3-4) T cell responses | minimal effects | significantly higher | enhanced | enhanced the seroresponse to all three viral components | induced rapid seroconversion | induced a robust and sustained IgG response | induced both IgG1 and IgG2a in a more balanced Th1-Th2-type response | induced antigen-specific IFN-γ T cells that were long lived | minimal effects | 3.7 | 6.8 | enhanced | enhanced purified CD4+ or CD8+T cell proliferation |  |  |  | 
Cn1c2ccccc2c2nc(SCC(=O)NC3CCCCC3)n(-c3ccccc3)c(=O)c21 [Compound 1Z105] | highly induced T cell response |  | induced the chemokines MCP-1, and IL-8 | significantly higher | enhanced | enhanced the seroresponse to all three viral components | induced rapid seroconversion | induced a robust and sustained IgG response | produced predominately IgG1 in a Th2-type response |  | induced the chemokines MCP-1, and IL-8 |  |  | enhanced | enhanced purified CD4+ or CD8+T cell proliferation | produced predominately IgG1 | no significant difference | significant only in the 1Z105 group | additively increased
